Consider three molecules from ChEMBL document CHEMBL5214927, “Recent advance on carbamate-based cholinesterase inhibitors as potential multifunctional agents against Alzheimer's disease” (Eur J Med Chem, 2022).

Molecules are shown by their SMILES.

For assay [1], the target named is Acetylcholinesterase (Homo sapiens, UniProt P22303). The experiment in a line: Inhibition of recombinant human AChE using acetylthiocholine as substrate preincubated for 20 mins followed by substrate addition measured after 6 mins by Ellman's method.
Acetylcholinesterase (Homo sapiens, UniProt P22303), sequence (P22303 whole entry): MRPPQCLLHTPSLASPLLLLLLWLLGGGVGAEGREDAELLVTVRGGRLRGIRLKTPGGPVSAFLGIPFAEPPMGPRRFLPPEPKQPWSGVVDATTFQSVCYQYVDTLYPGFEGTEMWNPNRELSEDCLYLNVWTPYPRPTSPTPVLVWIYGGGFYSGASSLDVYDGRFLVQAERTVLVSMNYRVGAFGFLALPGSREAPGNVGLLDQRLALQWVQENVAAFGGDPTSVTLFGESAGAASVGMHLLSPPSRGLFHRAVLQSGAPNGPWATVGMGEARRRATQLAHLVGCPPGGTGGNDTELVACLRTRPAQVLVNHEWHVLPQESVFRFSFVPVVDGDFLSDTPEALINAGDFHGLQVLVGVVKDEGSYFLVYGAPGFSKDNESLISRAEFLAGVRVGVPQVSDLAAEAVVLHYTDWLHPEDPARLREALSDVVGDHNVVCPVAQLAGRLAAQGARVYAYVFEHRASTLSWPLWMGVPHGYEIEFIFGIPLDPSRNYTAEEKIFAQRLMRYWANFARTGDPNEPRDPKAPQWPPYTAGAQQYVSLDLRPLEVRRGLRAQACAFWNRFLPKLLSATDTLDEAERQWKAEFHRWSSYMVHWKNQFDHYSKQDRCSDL
Assay [2] addresses T1, Acetylcholinesterase (Rattus norvegicus, UniProt P37136).
T1 sequence (P37136 whole entry): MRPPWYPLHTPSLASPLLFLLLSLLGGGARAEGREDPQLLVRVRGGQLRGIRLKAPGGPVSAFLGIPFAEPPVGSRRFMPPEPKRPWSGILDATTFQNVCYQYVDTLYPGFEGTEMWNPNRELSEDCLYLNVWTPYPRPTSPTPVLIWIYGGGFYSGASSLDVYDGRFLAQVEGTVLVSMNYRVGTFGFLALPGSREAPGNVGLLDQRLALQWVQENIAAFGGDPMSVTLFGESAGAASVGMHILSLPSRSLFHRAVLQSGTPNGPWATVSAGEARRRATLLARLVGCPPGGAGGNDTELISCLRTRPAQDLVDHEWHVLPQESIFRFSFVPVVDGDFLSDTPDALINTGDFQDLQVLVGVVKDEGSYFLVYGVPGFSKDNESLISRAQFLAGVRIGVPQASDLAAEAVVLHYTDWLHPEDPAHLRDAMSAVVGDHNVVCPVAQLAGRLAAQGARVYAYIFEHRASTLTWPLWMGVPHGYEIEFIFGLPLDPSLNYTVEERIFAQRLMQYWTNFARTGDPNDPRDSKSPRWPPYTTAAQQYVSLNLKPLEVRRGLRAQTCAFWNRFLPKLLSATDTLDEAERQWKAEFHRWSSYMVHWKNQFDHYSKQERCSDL
In words: Inhibition of rat AChE.

The target in the next assay is Butyrylcholinesterase (Rattus norvegicus, UniProt Q9JKC1). In words: Inhibition of rat BChE.
Butyrylcholinesterase, sequence (Q9JKC1 whole entry): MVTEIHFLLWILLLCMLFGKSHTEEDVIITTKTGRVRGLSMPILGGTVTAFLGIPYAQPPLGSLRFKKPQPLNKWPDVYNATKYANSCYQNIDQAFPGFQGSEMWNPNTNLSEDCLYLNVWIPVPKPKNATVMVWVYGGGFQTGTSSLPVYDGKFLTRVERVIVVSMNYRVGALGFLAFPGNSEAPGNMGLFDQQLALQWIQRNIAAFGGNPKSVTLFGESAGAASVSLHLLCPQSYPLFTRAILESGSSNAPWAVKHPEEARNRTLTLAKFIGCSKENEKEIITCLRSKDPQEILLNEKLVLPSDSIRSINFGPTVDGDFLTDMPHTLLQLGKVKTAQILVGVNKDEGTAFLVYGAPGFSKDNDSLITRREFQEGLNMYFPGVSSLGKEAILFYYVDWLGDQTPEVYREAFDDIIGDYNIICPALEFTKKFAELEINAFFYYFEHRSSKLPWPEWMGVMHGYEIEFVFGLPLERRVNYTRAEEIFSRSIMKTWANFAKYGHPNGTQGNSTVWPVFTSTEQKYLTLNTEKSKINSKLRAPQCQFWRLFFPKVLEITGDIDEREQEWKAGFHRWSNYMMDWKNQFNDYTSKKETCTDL
Assay [3] deals with Acetylcholinesterase and butyrylcholinesterase (AChE and BChE) (Rattus norvegicus) (UniProt P37136+Q9JKC1). In words: Selectivity index, ratio of IC50 for rat AChE to IC50 for rat BChE. It counts as protein assay.
Acetylcholinesterase and butyrylcholinesterase (AChE and BChE) (Rattus norvegicus), sequence (Q9JKC1 1-597, one chain of several): as the sequence (Q9JKC1 whole entry) above
The target in assay [4] is T2, Amine oxidase [flavin-containing] B (Homo sapiens, UniProt P27338).
T2 sequence (P27338 whole entry): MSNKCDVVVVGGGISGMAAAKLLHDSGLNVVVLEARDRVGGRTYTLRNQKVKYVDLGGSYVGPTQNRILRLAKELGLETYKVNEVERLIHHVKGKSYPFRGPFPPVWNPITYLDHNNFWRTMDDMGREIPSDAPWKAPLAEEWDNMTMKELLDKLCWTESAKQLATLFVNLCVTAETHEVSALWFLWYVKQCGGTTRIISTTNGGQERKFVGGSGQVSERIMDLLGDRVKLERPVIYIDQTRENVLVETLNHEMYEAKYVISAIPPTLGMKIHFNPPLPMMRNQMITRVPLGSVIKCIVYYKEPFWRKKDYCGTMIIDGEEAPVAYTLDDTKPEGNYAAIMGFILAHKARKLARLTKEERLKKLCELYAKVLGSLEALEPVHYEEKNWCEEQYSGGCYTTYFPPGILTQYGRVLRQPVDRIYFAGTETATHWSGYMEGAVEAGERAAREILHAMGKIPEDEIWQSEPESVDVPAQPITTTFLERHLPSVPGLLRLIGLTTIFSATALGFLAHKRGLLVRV
In words: Displacement of 14C-phenylethylamine from MAO-B (unknown origin) preincubated for 60 mins followed by substrate addition measured after 20 mins in presence of clorgyline by liquid scintillation counting method.

The next assay addresses Cholinesterase (Equus caballus, UniProt P81908). In words: Inhibition of equine serum BChE using butyrylthiocholine as substrate preincubated for 60 mins by Ellman's method.
In assay [5] the target is T3, Amine oxidase [flavin-containing] A (Homo sapiens, UniProt P21397).
T3 sequence (P21397 whole entry): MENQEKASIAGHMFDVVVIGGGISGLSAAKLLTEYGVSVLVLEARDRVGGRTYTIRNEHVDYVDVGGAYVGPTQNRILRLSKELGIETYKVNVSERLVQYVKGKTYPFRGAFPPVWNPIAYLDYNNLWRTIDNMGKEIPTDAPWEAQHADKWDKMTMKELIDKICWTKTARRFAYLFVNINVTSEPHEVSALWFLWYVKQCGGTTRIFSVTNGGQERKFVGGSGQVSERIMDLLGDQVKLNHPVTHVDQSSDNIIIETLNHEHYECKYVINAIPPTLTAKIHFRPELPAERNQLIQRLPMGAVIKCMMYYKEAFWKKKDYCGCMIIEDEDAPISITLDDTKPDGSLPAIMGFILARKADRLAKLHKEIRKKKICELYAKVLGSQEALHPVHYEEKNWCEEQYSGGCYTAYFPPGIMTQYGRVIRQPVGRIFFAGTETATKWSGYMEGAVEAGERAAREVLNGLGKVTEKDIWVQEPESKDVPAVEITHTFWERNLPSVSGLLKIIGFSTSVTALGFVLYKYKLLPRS
The experiment in a line: Displacement of 14C-5-hydroxytryptamine creatinine disulfate from MAO-A (unknown origin) preincubated for 60 mins followed by substrate addition measured after 30 mins in presence of selegiline by liquid scintillation counting method.

Assay [6] can be described thus: Selectivity index, ratio of IC50 for human red blood cell AChE to IC50 for equine serum BChE.

Cholinesterase, sequence (P81908 whole entry): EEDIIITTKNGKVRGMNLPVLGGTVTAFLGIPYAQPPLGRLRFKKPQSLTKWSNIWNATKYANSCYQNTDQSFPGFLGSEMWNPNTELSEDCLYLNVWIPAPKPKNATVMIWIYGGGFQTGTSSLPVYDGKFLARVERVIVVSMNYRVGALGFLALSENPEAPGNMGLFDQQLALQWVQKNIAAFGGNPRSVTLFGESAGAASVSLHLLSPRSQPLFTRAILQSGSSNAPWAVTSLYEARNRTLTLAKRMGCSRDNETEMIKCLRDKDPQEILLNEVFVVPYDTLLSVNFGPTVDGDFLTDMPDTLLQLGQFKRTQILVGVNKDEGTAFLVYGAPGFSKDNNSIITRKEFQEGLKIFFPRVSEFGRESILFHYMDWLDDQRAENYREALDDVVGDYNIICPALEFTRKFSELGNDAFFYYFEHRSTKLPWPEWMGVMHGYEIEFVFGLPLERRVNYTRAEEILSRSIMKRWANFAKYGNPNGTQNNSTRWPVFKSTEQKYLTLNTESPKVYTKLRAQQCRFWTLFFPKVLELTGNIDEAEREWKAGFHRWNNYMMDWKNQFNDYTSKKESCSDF

Regarding `CC[C@@]1(c2cccc(OC(=O)Nc3ccccc3)c2)CCCCN(C)C1`, at Acetylcholinesterase [1], the IC50 turned out to be 274 nM.

For `CN(C)C(=O)Oc1cc(OC(=O)N(C)C)cc(C(O)CNC(C)(C)C)c1` (stereo not drawn) [BAMBUTEROL], the IC50 on Acetylcholinesterase [2] came to 30000 nM; against Butyrylcholinesterase it was 3 nM. In addition, the Ratio IC50 in assay [3] was 10000.

Consider `C#CCN(C)C(C)Cc1cccc(OC(=O)N(C)CC)c1` (stereo not drawn), for which the IC50 in assay [4] turned out to be 100 nM; on Cholinesterase it was 1500 nM; in assay [5] it was 120 nM. For the same molecule, the Ratio IC50 in assay [6] is 153.
